Columns and labels:
[1] = test system: HER2 high-expressing cancer cells SK-BR-3; experiment: Cytotoxicity assay (CellTiter-Glo cell viability), SK-BR-3; type: cell-based; settings: SK-BR-3, 120 h treatment
Experimental: (§1) Cytotoxicity assays were performed using HER2 high-expressing cancer cells SK-BR-3 (FIG. 1) and NCI-N87 (FIG. 2), HER2 low-expressing cancer cells CFPAC-1 (FIG. 3) and NCI-H2110 (FIG. 4), as well as a HER2 negative cell line MDA-MB-468 (FIG. 5) to analyze the effect of conjugates on tumor cell proliferation. […] In brief, 3000 to 5000 cells were plated in 96-well plates, and cells were able to attach overnight. Cells were treated with indicated drugs with various concentrations for 120 h. Cell viabilities were examined by CellTiter-Glo® Luminescent Cell Viability Assay, and percentage of cell viability was calculated.

[2] = test system: HER2 high-expressing cancer cells NCI-N87; experiment: Cytotoxicity assay (CellTiter-Glo cell viability), NCI-N87; type: cell-based; settings: NCI-N87, 120 h treatment
Experimental: as §1

Question: For CC[C@@]1(O)C(=O)OCc2c1cc1n(c2=O)Cc2c-1nc1cc(F)c(C)c3c1c2[C@@H](NC(=O)CO)CC3 [compound 10], which IC50 [1] is on record?
Answer: Its IC50 is 1.47 nM.

Question: And the IC50 [2]?
Answer: The IC50 was 4.68 nM.

Reference: patent US11826432B2, “Linkers, conjugates and applications thereof” (priority 2021, dated 2023)
